Test results taken from US12338218B2, “Crystal form of benzimidazole-2-one compound, solvate thereof, crystal form of solvate thereof, and preparation method thereof” (MEDSHINE DISCOVERY INC., priority 2019, dated 2025).
Read-outs that look alike come from different tables or passages of the source.

Assays:
Assay type in all cases: physicochemical
[1] = Hygroscopicity of crystal form A (dynamic vapor sorption)
Method: SEM Advantage-1 Dynamic Vapor Sorption Apparatus.
10-30 mg of crystal form A of compound 1 was weighed and placed in a DVS sample pan for assaying.

[2] = Stability assay of crystal form A in different solvents (XRPD after 2 weeks)
Method: 17 aliquots of crystal form A of compound 1 were weighed (about 15 mg per aliquot), and an appropriate amount of a single or mixed solvent in the Table below was added, respectively. The suspension was stirred at room temperature or 50° C. for 2 weeks. Solids were collected by centrifugation, and detected by XRPD for the crystal form status.

[3] = Solid stability assay at high temperature, high humidity and strong light
Method: Method for Determining Content Disclosed Herein
Instrument model: Agilent 1260 high performance liquid chromatograph
Detailed parameters of chromatographic conditions were as follows:
Column temperature: 35° C.
Detection wavelength: 230 nm
Mobile phase A: 0.04% aqueous trifluoroacetic acid solution (V/V)
Mobile phase B: 100% acetonitrile
Diluent: acetonitrile: pure water=50:50 (V/V)
Probe Wash: acetonitrile: pure water=50:50 (V/V)
Gradient elution program: […]
According to “Guidelines for Stability Assay of APIs and Preparations” (Chinese Pharmacopoeia 2015 Edition, Volume IV, General Principles 9001), crystal form A of compound 1 was assayed for stability at high temperature (60° C., open), high humidity (room temperature/92.5% relative humidity, open) and strong light (5000±500 Lux, 90 μw/cm^2, sealed).
1.5 g of crystal form A of compound 1 was weighed, placed in an open watch glass, and spread into a thin layer. The samples placed under high temperature and high humidity conditions were placed in a desiccator for inspection, and samples were taken on the 5th, 10th, and 30th days for assaying. The assay results were compared with the initial assay results on day 0. The samples placed under strong light condition were covered with a quartz glass cover, and samples were taken on the 5th and 10th days for assaying. The assay results were compared with the initial assay results on day 0.

[4] = Solid stability assay under accelerated condition (40° C./75% relative humidity, sealed)
Method: According to “Guidelines for Stability Assay of APIs and Preparations” (Chinese Pharmacopoeia 2015 Edition, Volume IV, General Principles 9001), crystal form A of compound 1 was assayed for stability under accelerated condition of high temperature and high humidity (40° C./75% relative humidity, sealed).
1.5 g of crystal form A of compound 1 was weighed and placed in a double-layer low-density polyethylene bag. Each layer of low-density polyethylene bag was sealed by buckling, respectively, and then the double-layer low-density polyethylene bag was placed in an aluminum foil bag and heat-sealed. Samples were taken on the 1st, 2nd, 3rd and 6th months for assaying, and the assay results were compared with the initial assay results on day 0.

[5] = Solid stability assay under long-term condition (25° C./60% relative humidity, sealed)
Method: According to “Guidelines for Stability Assay of APIs and Preparations” (Chinese Pharmacopoeia 2015 Edition, Volume IV, General Principles 9001), crystal form A of compound 1 was assayed for stability under long-term condition (25° C./60% relative humidity, sealed).
1.5 g of crystal form A of compound 1 was weighed and placed in a double-layer low-density polyethylene bag. Each layer of low-density polyethylene bag was sealed by buckling, respectively, and then the double-layer low-density polyethylene bag was placed in an aluminum foil bag and heat-sealed. Samples were taken on the 3rd and 6th months for assaying, and the assay results were compared with the initial assay results on day 0.

[6] = High humidity (room temperature/92.5% relative humidity, open), Day 5
[7] = High humidity (room temperature/92.5% relative humidity, open), Day 10
[8] = High humidity (room temperature/92.5% relative humidity, open), Day 30
[9] = High temperature (60° C., open), Day 5
[10] = High temperature (60° C., open), Day 10
[11] = High temperature (60° C., open), Day 30
[12] = Strong light (5000 ± 500 Lux, 90 μw/cm^2, sealed), Day 5
[13] = Strong light (5000 ± 500 Lux, 90 μw/cm^2, sealed), Day 10
[14] = 40° C./75% relative humidity, sealed, Month 1
[15] = 40° C./75% relative humidity, sealed, Month 2
[16] = 40° C./75% relative humidity, sealed, Month 3
[17] = 40° C./75% relative humidity, sealed, Month 6
[18] = 25° C./60% relative humidity, sealed, Month 3
[19] = 25° C./60% relative humidity, sealed, Month 6

## CCOc1cc([C@@H](CS(C)(=O)=O)n2c(=O)[nH]c3cc(F)ccc32)ccc1OC [crystal form A of compound 1]
[1]
  hygroscopicity (in words): low hygroscopicity
[1]; DVS, 25° C. and 80% RH
  hygroscopic weight gain (ΔW): 0.05%
[1]; listed as Crystal form A of compound 1
  hygroscopicity (in words): no or almost no hygroscopicity
[2]; 1,4-Dioxane:n-heptane (1:1), 50° C.
  Status (after 2 weeks): Suspension
[2]; 2-Butanol:m-xylene (2:1), 50° C.
  Status (after 2 weeks): Suspension
[2]; 2-Methyltetrahydrofuran:n-octane (4:1), 50° C.
  Status (after 2 weeks): Suspension
[2]; Acetone:toluene (2:1), room temperature
  Status (after 2 weeks): Suspension
[2]; Acetonitrile:water (3:1), room temperature
  Status (after 2 weeks): Suspension
[2]; Dichloromethane:m-xylene (1:1), room temperature
  Status (after 2 weeks): Suspension
[2]; Dimethyl sulfoxide:water (2:1), 50° C.
  Status (after 2 weeks): Suspension
[2]; Ethanol:water (3:1), 50° C.
  Status (after 2 weeks): Suspension
[2]; Ethyl acetate:m-xylene (2:1), room temperature
  Status (after 2 weeks): Suspension
[2]; Isopropanol:water (85:5), room temperature
  Status (after 2 weeks): Suspension
[2]; Isopropanol:water (92:8), room temperature
  Status (after 2 weeks): Suspension
[2]; Isopropanol:water (95:5), room temperature
  Status (after 2 weeks): Suspension
[2]; Isopropanol:water (98:2), room temperature
  Status (after 2 weeks): Suspension
[2]; Methyl isobutyl ketone:n-hexane (2:1), 50° C.
  Status (after 2 weeks): Suspension
[2]; Methyl tert-butyl ether, room temperature
  Status (after 2 weeks): Suspension
[2]; Toluene, room temperature
  Status (after 2 weeks): Suspension
[2]; Water, room temperature
  Status (after 2 weeks): Suspension
[2]; methyl tert-butyl ether, toluene, water, mixed solvent of alcohol and water
  stability in solvents (in words): good stability
[3]; Day 0
  Appearance: White
  Content: 99.5%
  Total impurity: 0.33%
[3]; [6]
  Appearance: White
  Content: 101.1%
  Total impurity: 0.32%
[3]; [7]
  Appearance: White
  Content: 100.3%
  Total impurity: 0.32%
[3]; [8]
  Appearance: White
  Content: 99.5%
  Total impurity: 0.33%
[3]; [9]
  Appearance: White
  Content: 101.3%
  Total impurity: 0.32%
[3]; [10]
  Appearance: White
  Content: 100.3%
  Total impurity: 0.32%
[3]; [11]
  Appearance: White
  Content: 99.2%
  Total impurity: 0.33%
[3]; [12]
  Appearance: White
  Content: 100.4%
  Total impurity: 0.33%
[3]; [13]
  Appearance: White
  Content: 100.7%
  Total impurity: 0.33%
[3]; high temperature, high humidity, or strong light condition
  solid stability (in words): good stability
[4]; [14]
  Appearance: White
  Content: 99.5%
  Total impurity: 0.32%
[4]; [15]
  Appearance: White
  Content: 99.4%
  Total impurity: 0.33%
[4]; [16]
  Appearance: White
  Content: 99.2%
  Total impurity: 0.33%
[4]; [17]
  Appearance: White
  Content: 99.5%
  Total impurity: 0.33%
[4]; Day 0
  Appearance: White
  Content: 99.5%
  Total impurity: 0.33%
[4]; accelerated condition of 40° C./75% relative humidity
  solid stability (in words): good stability
[5]; [18]
  Appearance: White
  Content: 99.0%
  Total impurity: 0.34%
[5]; [19]
  Appearance: White
  Content: 99.5%
  Total impurity: 0.33%
[5]; Day 0
  Appearance: White
  Content: 99.5%
  Total impurity: 0.33%
[5]; long-term condition of 25° C./60% relative humidity
  solid stability (in words): good stability
